Measurements: US20240174723A1, “STAPLED ANTIMICROBIAL PEPTIDES (STAMPS) AND USES THEREOF” (Lytica Therapeutics, Inc., priority 2021, published 2024)
Converted amounts (≈) assume the structure as drawn. Positions of bridges follow the written chain, without caps; N, C: chain ends. Non-standard residues stand in square brackets, D forms with d. Residues, ends and D or L forms follow the SMILES beside them. S5 = C=CCCC[C@](C)(N)C(=O)O; Pra = C#CC[C@H](N)C(=O)O; Dap = NC[C@H](N)C(=O)O

Columns and labels:
A. baumannii = format: cell-based, Acinetobacter baumannii
Method: (§1) Antimicrobial Activity Assay: The following microbroth dilution protocol was adapted from CLSI to determine the minimum inhibitory concentration (MIC) of StAMPs. Briefly, Mueller-Hinton broth (MHB) or cation-adjusted Mueller-Hinton broth (MHB II) was prepared and autoclaved. Then, a colony of bacterial cells was picked and grown overnight in broth at 37° C. and then diluted and allowed to grow again for 3-4 hours. Serial dilutions of peptide stocks in water (10 μl) were prepared using clear round-bottom polypropylene 96-well plates. Then 90 μl of bacteria in broth was added to give a final inoculum of 5×10^5 CFU/ml. The plates were then covered with porous tape to reduce evaporation and incubated for 20-24 hours at 37° C. The MIC was the minimum peptide concentration at which no visible bacterial growth was observed.
(§2) Renal toxicity was measured after 90 minutes of incubation, while liver toxicity was measured after 48 hours of incubation with StAMPs. N/A=not tested. The following apply to all peptides (i.e., StAMPs) listed in Tables A-C: Crosslinks (X^1—X^2 and X^3—X^4): (alk); N-terminus: —NH2; C-terminus: amidated with —NH2; counterion: Cl^−. The following apply to all peptides (i.e., StAMPs) listed in Table D: Crosslinks (X^1—X^2 and X^3—X^4): (alk); N-terminus: —NH2; C-terminus: as shown in table; counterion: Cl^−.

S. aureus = format: cell-based, Staphylococcus aureus
Method: as §1, §2

in vitro = format: cell-based; settings: human, Inhibitory Concentration at 50% Cytotoxicity (IC50) Human Liver Cells (HepG2)
Method: Cell culture: RPTEC were maintained in MEM media supplemented with growth factors. HEPG2 cell line was maintained in Eagle's Minimum Essential Medium (EMEM) supplemented with fetal bovine serum to a final concentration of 10%.
48 hours cytotoxicity assay: Cells were plated in a 96-well format, and after 4 hour incubation to allow attachment, serial dilutions of StAMPs from a 5 mg/mL water stock, or vehicle, were then added to the cells in a final volume of 100 μl. After incubating at 37° C. for 48 hours, 100 μl of CellTiter-Glo® reagent was added to the cells, and the plates were incubated 10 minutes at room temperature. Luminescence was then measured on a microplate reader.
as §2

P. aeruginosa = format: cell-based, Pseudomonas aeruginosa
Method: as §1, §2
StAMP Micelle Formulation: DSPE-MPEG(2000) was suspended in buffered saline at 50-100 mg/mL overnight. StAMP stock solutions at 5-20 mg/mL in buffered saline were prepared and equal volumes of micelle and StAMP stock solution were mixed at the desired StAMP:Lipid ratio. Suspensions were allowed to sit for 5-10 minutes at room temperature before being used in in vitro and in vivo assays. […]

K. pneumoniae = format: cell-based, Klebsiella pneumoniae
Method: as §1, §2

E. coli = format: cell-based, Escherichia coli
Method: as §1, §2

| SMILES | Minimum Inhibitory Concentration (MIC) A. baumannii (A. baumannii) [µg/mL] | Minimum Inhibitory Concentration (MIC) S. aureus (S. aureus) [µg/mL] | IC50 at 48 hours (in vitro) [µg/mL] | Minimum Inhibitory Concentration (MIC) P. aeruginosa (P. aeruginosa) [µg/mL] | Minimum Inhibitory Concentration (MIC) K. pneumoniae (K. pneumoniae) [µg/mL] | Minimum Inhibitory Concentration (MIC) E. coli (E. coli) [µg/mL] |
| --- | --- | --- | --- | --- | --- | --- |
| CC(C)[C@@H]1NC(=O)[C@@](C)(NC(=O)[C@H](C)NC(=O)[C@H](CCCCN)NC(=O)CNC(=O)[C@H](Cc2ccccc2)NC(=O)[C@H](CCCCN)NC(=O)[C@H](CCCCN)NC(=O)[C@H](CN)NC(=O)[C@H](CCCCN)NC(=O)[C@H](CCCCN)NC(=O)[C@]2(C)CCCC=CCCC[C@](C)(NC(=O)CN)C(=O)NCC(=O)N[C@@H](CCCCN)C(=O)N[C@@H](Cc3ccccc3)C(=O)N2)CCCC=CCCC[C@@](C)(C(=O)N[C@@H](C)C(=O)N[C@@H](CCCCN)C(=O)N[C@@H](CCCCN)C(=O)NCC(=O)NCC(=O)N[C@@H](CCC(=O)O)C(N)=O)NC(=O)[C@H](CCC(=O)O)NC(=O)CNC1=O [compound 81] (H-G[S5]GKF[S5]KK[Dap]KKFGKA[S5]VGE[S5]AKKGGE-NH2; staple 2-6, 16-20) | 4 | >64 | > 200 | 16 | 64 | 8 |
| CC(C)[C@@H]1NC(=O)[C@@](C)(NC(=O)[C@H](C)NC(=O)[C@H](CCCCN)NC(=O)CNC(=O)[C@H](Cc2ccccc2)NC(=O)[C@H](CCCCN)NC(=O)[C@H](CCCCN)NC(=O)[C@H](CCCCN)NC(=O)[C@H](CO)NC(=O)[C@H](CN)NC(=O)[C@]2(C)CCCC=CCCC[C@](C)(NC(=O)CN)C(=O)NCC(=O)N[C@@H](CCCCN)C(=O)N[C@@H](Cc3ccccc3)C(=O)N2)CCCC=CCCC[C@@](C)(C(=O)N[C@@H](C)C(=O)N[C@@H](CCCCN)C(=O)N[C@@H](CCCCN)C(N)=O)NC(=O)[C@H](CCC(=O)O)NC(=O)CNC1=O [compound 85] (H-G[S5]GKF[S5][Dap]SKKKFGKA[S5]VGE[S5]AKK-NH2; staple 2-6, 16-20) | 0.5 | 64 | > 200 | 2 | 16 | 2 |
| CC(C)[C@@H]1NC(=O)[C@@](C)(NC(=O)[C@H](C)NC(=O)[C@H](CCCCN)NC(=O)CNC(=O)[C@H](Cc2ccccc2)NC(=O)[C@H](CCCCN)NC(=O)[C@H](CCCCN)NC(=O)[C@H](CCCCN)NC(=O)[C@H](CCCCN)NC(=O)[C@H](CN)NC(=O)[C@]2(C)CCCC=CCCC[C@](C)(NC(=O)CN)C(=O)NCC(=O)N[C@@H](CCCCN)C(=O)N[C@@H](Cc3ccccc3)C(=O)N2)CCCC=CCCC[C@@](C)(C(=O)N[C@@H](CO)C(=O)N[C@@H](CCCCN)C(=O)N[C@@H](CCCCN)C(N)=O)NC(=O)[C@H](CCC(=O)O)NC(=O)CNC1=O [compound 89] (H-G[S5]GKF[S5][Dap]KKKKFGKA[S5]VGE[S5]SKK-NH2; staple 2-6, 16-20) | 1 | 64 | 199 (≈ 78.4 µM) | 1 | 32 | 2 |
| CC(C)[C@@H]1NC(=O)[C@@](C)(NC(=O)[C@H](C)NC(=O)[C@H](CCCCN)NC(=O)[C@H](CO)NC(=O)[C@H](Cc2ccccc2)NC(=O)[C@H](CCCCN)NC(=O)[C@H](CCCCN)NC(=O)[C@H](CCCCN)NC(=O)[C@H](CCCCN)NC(=O)[C@H](CN)NC(=O)[C@]2(C)CCCC=CCCC[C@](C)(NC(=O)CN)C(=O)NCC(=O)N[C@@H](CCCCN)C(=O)N[C@@H](Cc3ccccc3)C(=O)N2)CCCC=CCCC[C@@](C)(C(=O)N[C@@H](C)C(=O)N[C@@H](CCCCN)C(=O)N[C@@H](CCCCN)C(N)=O)NC(=O)[C@H](CCC(=O)O)NC(=O)CNC1=O [compound 86] (H-G[S5]GKF[S5][Dap]KKKKFSKA[S5]VGE[S5]AKK-NH2; staple 2-6, 16-20) | 1 | 64 | > 200 | 1 | 32 | 2 |
| C#CC[C@H](NC(=O)[C@H](CCC(=O)O)NC(=O)CNC(=O)CNC(=O)[C@H](CCCCN)NC(=O)[C@H](CCCCN)NC(=O)[C@H](C)NC(=O)[C@]1(C)CCCC=CCCC[C@](C)(NC(=O)[C@H](C)NC(=O)[C@H](CCCCN)NC(=O)CNC(=O)[C@H](Cc2ccccc2)NC(=O)[C@H](CCCCN)NC(=O)[C@H](CCCCN)NC(=O)[C@H](CCCCN)NC(=O)[C@H](CCCCN)NC(=O)[C@H](CCCCN)NC(=O)[C@]2(C)CCCC=CCCC[C@](C)(NC(=O)CN)C(=O)NCC(=O)N[C@@H](CCCCN)C(=O)N[C@@H](Cc3ccccc3)C(=O)N2)C(=O)N[C@@H](C(C)C)C(=O)NCC(=O)N[C@@H](CCC(=O)O)C(=O)N1)C(N)=O [compound 95] (H-G[S5]GKF[S5]KKKKKFGKA[S5]VGE[S5]AKKGGE[Pra]-NH2; staple 2-6, 16-20) | 2 | >64 | > 200 | 4 | 64 | 4 |
| CC(C)[C@@H]1NC(=O)[C@@](C)(NC(=O)[C@H](C)NC(=O)[C@H](CCCCN)NC(=O)CNC(=O)[C@H](Cc2ccccc2)NC(=O)[C@H](CCCCN)NC(=O)[C@H](CCCCN)NC(=O)[C@H](CCCCN)NC(=O)[C@H](CCCCN)NC(=O)[C@H](CCN)NC(=O)[C@]2(C)CCCC=CCCC[C@](C)(NC(=O)CN)C(=O)NCC(=O)N[C@@H](CCCCN)C(=O)N[C@@H](Cc3ccccc3)C(=O)N2)CCCC=CCCC[C@@](C)(C(=O)N[C@@H](C)C(=O)N[C@@H](CCCCN)C(=O)N[C@@H](CCCCN)C(N)=O)NC(=O)[C@H](CCC(=O)O)NC(=O)CNC1=O (single isomer, unassigned) [compound 41] | 2 | >64 | 115 (≈ 45.3 µM) | 4 | 4 | 2 |
